Data published in ChEMBL document CHEMBL4014322, “Atropisomerism and Conformational Equilibria: Impact on PI3Kδ Inhibition of 2-((6-Amino-9H-purin-9-yl)methyl)-5-methyl-3-(o-tolyl)quinazolin-4(3H)-one (IC87114) and Its Conformationally Restricted Analogs” (J Med Chem, 2017).

Experiments:
[1] = molecular target: PI3-kinase p110-delta/p85-alpha (Homo sapiens, UniProt O00329); assay: Inhibition of human recombinant full length N-terminal His6-tagged PI3K p110delta/p85alpha expressed in baculovirus infected Sf9 insect cells using PI:PS as substrate after 60 mins by ADP-Glo assay
[2] = molecular target: T1, Phosphatidylinositol 4,5-bisphosphate 3-kinase catalytic subunit delta isoform (Homo sapiens, UniProt O00329)
T1 sequence (O00329 whole entry): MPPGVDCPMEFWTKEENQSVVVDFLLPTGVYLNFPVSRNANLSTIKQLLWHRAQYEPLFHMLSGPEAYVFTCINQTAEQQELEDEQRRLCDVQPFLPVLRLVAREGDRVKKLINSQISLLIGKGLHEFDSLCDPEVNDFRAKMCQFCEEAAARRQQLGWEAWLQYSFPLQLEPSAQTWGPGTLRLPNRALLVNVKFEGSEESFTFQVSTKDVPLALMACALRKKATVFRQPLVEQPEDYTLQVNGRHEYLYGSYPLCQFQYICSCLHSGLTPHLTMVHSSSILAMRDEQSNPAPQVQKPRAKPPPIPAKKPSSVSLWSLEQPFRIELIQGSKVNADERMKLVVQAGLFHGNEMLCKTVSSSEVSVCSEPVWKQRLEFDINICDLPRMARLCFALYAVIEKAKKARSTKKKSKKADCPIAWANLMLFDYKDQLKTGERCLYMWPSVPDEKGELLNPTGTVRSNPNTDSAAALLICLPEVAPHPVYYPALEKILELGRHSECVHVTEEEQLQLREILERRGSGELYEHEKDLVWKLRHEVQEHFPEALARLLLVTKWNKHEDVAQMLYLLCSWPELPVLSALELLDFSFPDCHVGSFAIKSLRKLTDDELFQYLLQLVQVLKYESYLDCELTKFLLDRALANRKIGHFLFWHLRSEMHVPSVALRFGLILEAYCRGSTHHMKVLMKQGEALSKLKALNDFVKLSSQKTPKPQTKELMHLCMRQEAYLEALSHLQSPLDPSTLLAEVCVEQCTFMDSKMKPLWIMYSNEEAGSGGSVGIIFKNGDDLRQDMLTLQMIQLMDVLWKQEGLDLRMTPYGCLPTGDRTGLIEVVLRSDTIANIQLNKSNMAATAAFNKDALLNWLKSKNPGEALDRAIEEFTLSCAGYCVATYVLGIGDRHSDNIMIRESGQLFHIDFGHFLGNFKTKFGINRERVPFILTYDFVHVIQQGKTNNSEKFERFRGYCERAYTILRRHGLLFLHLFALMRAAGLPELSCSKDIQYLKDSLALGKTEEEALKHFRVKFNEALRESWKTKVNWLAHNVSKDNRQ
Description: Inhibition of PI3Kdelta in human PBMC assessed as reduction in anti-human CD28 antibody stimulated IL-6 secretion levels after 72 hrs by ELISA

Sequence of PI3-kinase p110-delta/p85-alpha (P27986 whole entry, one chain of several, canonical isoform): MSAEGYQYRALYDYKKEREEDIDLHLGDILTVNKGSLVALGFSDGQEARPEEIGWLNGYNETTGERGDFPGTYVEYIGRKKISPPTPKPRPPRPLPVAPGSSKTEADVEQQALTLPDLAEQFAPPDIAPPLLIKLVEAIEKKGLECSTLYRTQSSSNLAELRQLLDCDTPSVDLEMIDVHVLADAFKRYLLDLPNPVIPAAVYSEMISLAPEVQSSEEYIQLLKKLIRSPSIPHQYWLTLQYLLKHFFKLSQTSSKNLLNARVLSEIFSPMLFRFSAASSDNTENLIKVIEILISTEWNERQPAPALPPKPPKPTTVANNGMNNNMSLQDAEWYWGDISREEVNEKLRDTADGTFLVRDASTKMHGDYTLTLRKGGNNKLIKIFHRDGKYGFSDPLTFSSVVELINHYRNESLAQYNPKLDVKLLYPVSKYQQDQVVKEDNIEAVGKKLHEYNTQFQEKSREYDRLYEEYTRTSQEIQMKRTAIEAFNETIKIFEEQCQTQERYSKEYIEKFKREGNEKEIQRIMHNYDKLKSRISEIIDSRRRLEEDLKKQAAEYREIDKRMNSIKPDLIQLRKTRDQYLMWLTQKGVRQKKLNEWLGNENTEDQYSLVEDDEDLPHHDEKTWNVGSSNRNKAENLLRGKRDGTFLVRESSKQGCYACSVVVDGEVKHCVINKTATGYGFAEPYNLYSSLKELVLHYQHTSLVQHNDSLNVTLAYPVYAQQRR

Row | SMILES | Ki [1] [nM] | IC50 [2] [nM]
1 | Cc1cccc2nc(Cn3cnc4c(N)ncnc43)n(-c3ccccc3)c(=O)c12 | 25.1 | 50.1
2 | Cc1ccccc1-n1c([C@H](C)n2cnc3c(N)ncnc32)nc2cccc(C)c2c1=O (stereo in doubt; form 1) | 3.16 | 6.31
3 | Cc1ccccc1-n1c([C@@H](C)n2cnc3c(N)ncnc32)nc2cccc(C)c2c1=O (stereo in doubt; form 1) | 126 | 
4 | Cc1ccccc1-n1c([C@H](C)n2cnc3c(N)ncnc32)nc2cccc(C)c2c1=O (stereo in doubt; form 2) | 1.58 | 1.26
5 | Cc1ccccc1-n1c([C@@H](C)n2cnc3c(N)ncnc32)nc2cccc(C)c2c1=O (stereo in doubt; form 2) | 12.6 | 
